According to patent US8299048B2, “Hexahydrocyclopentyl[f]indazole sulfonamides and derivatives thereof as selective glucocorticoid receptor modulators” (Merck Sharp & Dohme Corp., priority 2008, dated 2012):

Key:
[1] = target: T1, human GR (Homo sapiens, UniProt P04150); assay: Trans-Activation Modulation of Glucocorticoid Receptor (GRAMMER), MMTV-LUC reporter, agonist mode; assay type: cell-based; parameters: endogenous in cells; conditions: for Emax: A549, A549 cells, maximum activity, read-out: Transactivation A549 Cells GRAMMER Emax; for EC50: A549 cells, inflection point, read-out: Transactivation A549 Cells GRAMMER IP
T1 sequence (P04150 1-777): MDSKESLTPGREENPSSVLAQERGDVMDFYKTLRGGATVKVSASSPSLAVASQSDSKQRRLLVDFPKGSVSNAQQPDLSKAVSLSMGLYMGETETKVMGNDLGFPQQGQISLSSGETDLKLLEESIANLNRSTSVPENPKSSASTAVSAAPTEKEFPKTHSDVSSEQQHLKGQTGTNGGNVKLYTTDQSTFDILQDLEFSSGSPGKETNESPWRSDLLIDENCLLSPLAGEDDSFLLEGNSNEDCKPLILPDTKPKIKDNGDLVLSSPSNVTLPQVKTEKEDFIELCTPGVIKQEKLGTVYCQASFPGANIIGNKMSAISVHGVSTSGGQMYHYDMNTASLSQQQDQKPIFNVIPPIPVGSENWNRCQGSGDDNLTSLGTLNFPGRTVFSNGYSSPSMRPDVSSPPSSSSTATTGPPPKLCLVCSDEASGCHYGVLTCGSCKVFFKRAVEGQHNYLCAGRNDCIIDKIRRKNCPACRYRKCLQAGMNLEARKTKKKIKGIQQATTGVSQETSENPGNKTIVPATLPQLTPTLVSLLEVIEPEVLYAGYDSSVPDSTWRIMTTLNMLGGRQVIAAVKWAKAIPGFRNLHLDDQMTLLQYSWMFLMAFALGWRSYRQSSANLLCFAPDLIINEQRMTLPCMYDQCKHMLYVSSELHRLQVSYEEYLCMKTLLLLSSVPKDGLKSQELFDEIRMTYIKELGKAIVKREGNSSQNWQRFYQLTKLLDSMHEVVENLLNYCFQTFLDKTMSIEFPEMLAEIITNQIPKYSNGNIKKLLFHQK
Excerpt: This assay assesses the ability of test compounds to control transcription from the MMTV-LUC reporter gene in lung adenocarcinoma A549 cells or MDA-MB-453 cells, a human breast cancer cell line that naturally expresses the human GR. The assay measures induction of a modified MMTV LTR/promoter linked to the LUC reporter gene.
The routine transient assay consists of plating 7,000-25,000 cells/well of a white, clear-bottom 96-well plate. Alternatively, 384-well plates can be used at a cell concentration of 10,000/well. The media that the cells are plated in is “exponential growth medium” which consists of phenol red-free RPMI1640 containing 10% FBS, 4 mM L-glutamine, 20 mM HEPES, 10 ug/mL human insulin, and 20 ug/mL gentamicin. Incubator conditions are 37° C. and 5% CO2. The transfection is done in batch mode. The cells are trypsinized and counted to the right cell number in the proper amount of fresh media. It is then gently mixed with the FuGene6/DNA mix and plated onto the 96 or 384-well plate, all the wells receive 100 uL or 40 uL, respectively, of medium+lipid/DNA complex then incubated 37° C. overnight. The transfection cocktail consists of serum-free OptiMEM, FuGene6 reagent and DNA. The manufacturer's (Roche Biochemical) protocol for cocktail setup is as follows: The lipid to DNA ratio is approximately 2.5:1 and the incubation time is 20 min at room temperature. Sixteen to 24 hours after transfection, the cells are treated with dexamethasone to a final concentration of 10 nM as well as the compound of interest, such that final DMSO (vehicle) concentration is equal to or less than 1%. Each plate also contains samples that are treated with 10 nM dexamethasone alone, which is used as the 100% activity control. The cells are exposed to the compounds for 24 hours. After 24 hours, the cells are lysed by a Promega cell culture lysis buffer for approximately 30 min and then the luciferase activity in the extracts is assayed in the 96-well format luminometer. In 384-well format, Steady-Glo (Promega) or Steady-Lite (PerkinElmer) can be used by adding an equal volume of reagent to the media present in each well. Activity induced by 10 nM dexamethasone alone is set at 100% activity. Antagonist activity is calculated by determining the decrease in dexamethasone-induced activity in response to compound treatment relative to samples that were treated with dexamethasone alone. […] This transactivation assay can be performed in an agonist and antagonist mode to identify these different activities.

[2] = target: T1, human GR; assay: Transrepression Assay (GITAR), TNFα-β-lactamase reporter in U937 cells; assay type: cell-based; parameters: U937 cells contain an endogenous glucocorticoid receptor (GR); endogenous in cells; host or cells: U937 cells stably transfected with the TNF-alpha promoter/beta-lactamase reporter; conditions: for GITAR > GRAMM % SEP: GITAR Emax minus GRAMMER Emax; for EC50: U937 cells, inflection point, read-out: Transrepression U937 Cells GITAR IP
Excerpt: This assay assesses the ability of test compounds to control transcription from the TNFα-β-lactamase reporter gene in U937 cells, a human myelomonocytic leukemia cell line that naturally expresses the human GR. The assay measures compound dependent-repression of the TNFa promoter linked to a reporter gene.
The human U937 cells that had been stablely transfected with the TNF-α promoter driving β-lactamase are used for this assay. U937 cells contain an endogenous glucocorticoid receptor (GR). Cells are maintained in RPMI 1640 Growth medium (Gibco Cat#11875-093) containing 25 mM HEPES, 10% FBS, 2 mM L-Glutamine, 1 mM Sodium pyruvate, 25 μg/ml Gentamicin (Gibco Cat#15710-064), 1:1000 2-Mercaptoethanol (Gibco Cat#21985-023) and 0.8 mg/ml G418 (Gibco Cat#10131-027). The density of the cells in the flask needs to be about 1×10^6−3×10^6/ml at the time of harvest. Usually, the cells are split to 1.2˜1.4×10^5/ml (1:10) 3 days prior to the assay. 50,000 cells/well are plated in 96 well black-walled plates the day of assay. Test compounds are added 10 μL/well, and cells are incubated at 37° C. for 30˜45 min. For assaying compounds, first dilute 1:10 in DMSO to make 1 mM, then further dilute 1:100 in medium to make 10× stock prior to adding to the cells. Add 50 ng/mlPMA (Sigma, cat# P8139) 10 μL/well to a final concentration 5 ng/ml, and 1 μg/ml LPS (Sigma, cat# L4130) 10 μL/well to a final concentration 100 ng/ml. Incubate cells at 37° C. overnight for ˜18 hr. PMA is stored frozen as 100 μg/ml stock in DMSO. Dilute 1:10 in DMSO for a working stock of 10 μg/ml and store at −20 C. For assaying, dilute the 10 μg/ml working stock 1:200 in medium to make a 10× solution (50 ng/ml). Store frozen LPS at 1 mg/ml in PBS, dilute 1:1000 in medium to make 10× (1 μg/ml) for the assay. Add 6× loading buffer (CCF2-AM) 20 μL/well, and incubate at room temperature for 70˜90 min. […] The activity repressed by 100 nM dexamethasone alone is set as 100% activity.

[3] = U-937, U937 cells, maximum activity, read-out: Transrepression U937 Cells GITAR Emax
[4] = U-937, activity repressed by 100 nM dexamethasone alone set as 100%, read-out: maximal activity in the transrepression (GITAR) assay

| Emax [1] [%] | EC50 [1] [nM] | GITAR > GRAMM % SEP [2] [%] | EC50 [2] [nM] | Emax [2, 3] [%] | Emax [2, 4] [%] | SMILES |
| --- | --- | --- | --- | --- | --- | --- |
| 82.8 | 328 | 2.5 | 44.1 | 85.3 | > 5 | C[C@]12Cc3cnn(-c4ccc(F)cc4)c3C=C1CC[C@@H]2CN(CCc1ccccc1F)S(=O)(=O)Cc1cccc(Cl)c1 [Example 106, 1-(3-chlorophenyl)-N-[2-(2-fluorophenyl)ethyl]-N-{[(4αR,5S)-1-(4-fluorophenyl)-4α-methyl-1,4,4α,5,6,7-hexahydrocyclopenta[f]indazol-5-yl]methyl}methanesulfonamide] |
| 63.6 | 124 | 30.0 | 29.1 | 93.6 | > 5 | Cn1cc(S(=O)(=O)N(CC(O)c2ccccn2)C[C@H]2CCC3=Cc4c(cnn4-c4ccc(F)cc4)C[C@@]32C)c(C(F)(F)F)n1 (stereo partly drawn) [Example 157, N-{[(4αR,5S)-1-(4-fluorophenyl)-4α-methyl-1,4,4α,5,6,7-hexahydrocyclopenta[f]indazol-5-yl]methyl}-N-(2-hydroxy-2-pyridin-2-ylethyl)-1-methyl-3-(trifluoromethyl)-1H-pyrazole-4-sulfonamide] |
| 99.2 | 218 | 1.3 | 251 | 100 | > 5 | C[C@]12Cc3cnn(-c4ccc(F)cc4)c3C=C1CC[C@@H]2CN(CCc1ccccc1F)S(=O)(=O)Cc1cccnc1 [Example 124, N-[2-(2-fluorophenyl)ethyl]-N-{[(4αR,5S)-1-(4-fluorophenyl)-4α-methyl-1,4,4α,5,6,7-hexahydrocyclopenta[f]indazol-5-yl]methyl}-1-pyridin-3-ylmethanesulfonamide] |
| 37.8 | 306 | 23.4 | 286 | 61.1 | > 5 | C[C@]12Cc3cnn(-c4ccc(F)cc4)c3C=C1CC[C@@H]2CN(CCc1ccccn1)S(=O)(=O)Cc1ccccn1 [Example 165, N-{[(4αR,5S)-1-(4-fluorophenyl)-4α-methyl-1,4,4α,5,6,7-hexahydrocyclopenta[f]indazol-5-yl]methyl}-1-pyridin-2-yl-N-(2-pyridin-2-ylethyl)methanesulfonamide] |
| 17.9 | 509 | 48.7 | 616 | 66.5 | > 5 | C[C@]12Cc3cnn(-c4ccc(F)cc4)c3C=C1CC[C@@H]2CN(CC(O)C(F)F)S(=O)(=O)Cc1cccnc1 (stereo partly drawn) [Example 154, N-(3,3-difluoro-2-hydroxypropyl)-N-{[(4αR,5S)-1-(4-fluorophenyl)-4α-methyl-1,4,4α,5,6,7-hexahydrocyclopenta[f]indazol-5-yl]methyl}-1-pyridin-3-ylmethanesulfonamide] |
| 6.6 | 202 | 9.3 | 605 | 15.9 | > 5 | COc1ccccc1CCN(C[C@H]1CCC2=Cc3c(cnn3-c3ccc(F)cc3)C[C@@]21C)S(=O)(=O)Cc1cccc(C(F)(F)F)c1 [Example 119, N-{[(4αR,5S)-1-(4-fluorophenyl)-4α-methyl-1,4,4α,5,6,7-hexahydrocyclopenta[f]indazol-5-yl]methyl}-N-[2-(2-methoxyphenyl)ethyl]-1-[3-(trifluoromethyl)phenyl]methanesulfonamide] |
| 56.4 | 303 | 15.3 | 549 | 71.7 | > 5 | C[C@]12Cc3cnn(-c4ccc(F)cc4)c3C=C1CC[C@@H]2CN(CCc1ccccn1)S(=O)(=O)Cc1ccncc1 [Example 166, N-{[(4αR,5S)-1-(4-fluorophenyl)-4α-methyl-1,4,4α,5,6,7-hexahydrocyclopenta[f]indazol-5-yl]methyl}-1-pyridin-4-yl-N-(2-pyridin-2-ylethyl)methanesulfonamide] |
| 4.9 | 37 | 12.4 | 424 | 17.4 | > 5 | CN1CCOc2cc(S(=O)(=O)N(CC3CC3)C[C@H]3CCC4=Cc5c(cnn5-c5ccc(F)cc5)C[C@@]43C)ccc21 [Example 8, N-(cyclopropylmethyl)-N-{[(4αR,5S)-1-(4-fluorophenyl)-4α-methyl-1,4,4α,5,6,7-hexahydrocyclopenta[f]indazol-5-yl]methyl}-4-methyl-3,4-dihydro-2H-1,4-benzoxazine-7-sulfonamide] |
| 36.2 | 747 | 41.6 | 564 | 77.8 | > 5 | C[C@]12Cc3cnn(-c4ccc(F)cc4)c3C=C1CC[C@@H]2CN(CC=O)S(=O)(=O)c1ccccc1F [Example 158, 2-fluoro-N-{[(4αR,5S)-1-(4-fluorophenyl)-4α-methyl-1,4,4α,5,6,7-hexahydrocyclopenta[f]indazol-5-yl]methyl}-N-(2-oxoethyl)benzenesulfonamide] |
